molecular target: T1, recombinant human GR (Homo sapiens, UniProt P04150); assay: Human Glucocorticoid Receptor (GR) Assay, fluorescence polarization; format: binding; details: GS Red tracer, incubated 2 h at r.t., XLfit model 205, read-out: GRhuFL_FP_v2 Mean IC50
T1 construct: purchased Panvera/Invitrogen P2812 (kit P2893)
T1 sequence (P04150 1-777): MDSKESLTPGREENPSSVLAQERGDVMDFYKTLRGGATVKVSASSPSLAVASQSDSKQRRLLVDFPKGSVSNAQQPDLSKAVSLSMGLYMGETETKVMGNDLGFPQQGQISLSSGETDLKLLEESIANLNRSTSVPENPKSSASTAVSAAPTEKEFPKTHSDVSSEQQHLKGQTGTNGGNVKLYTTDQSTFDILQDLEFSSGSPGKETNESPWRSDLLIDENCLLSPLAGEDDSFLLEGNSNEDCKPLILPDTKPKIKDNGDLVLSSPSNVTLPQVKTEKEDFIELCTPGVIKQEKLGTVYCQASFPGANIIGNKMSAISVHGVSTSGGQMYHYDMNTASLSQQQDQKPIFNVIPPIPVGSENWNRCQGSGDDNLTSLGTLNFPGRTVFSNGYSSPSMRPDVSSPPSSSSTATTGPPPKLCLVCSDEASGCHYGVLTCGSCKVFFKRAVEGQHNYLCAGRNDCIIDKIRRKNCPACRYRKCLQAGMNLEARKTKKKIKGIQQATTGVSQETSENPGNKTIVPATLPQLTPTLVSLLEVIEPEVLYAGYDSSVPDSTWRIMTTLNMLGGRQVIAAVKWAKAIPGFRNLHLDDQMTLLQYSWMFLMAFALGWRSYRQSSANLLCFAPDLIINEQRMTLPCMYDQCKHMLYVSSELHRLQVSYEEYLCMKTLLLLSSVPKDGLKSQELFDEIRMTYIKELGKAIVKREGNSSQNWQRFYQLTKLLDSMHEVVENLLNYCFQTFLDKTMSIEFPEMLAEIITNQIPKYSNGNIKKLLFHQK
Experimental: Human Glucocorticoid Receptor (GR) Assay
The assay is based on a commercial kit from Panvera/Invitrogen (Part number P2893). The assay technology is fluorescence polarization. […] The GR and Stabilizing Peptide reagents are stored at −70° C. while the GS Red is stored at −20° C. Also included in the kit are 1M DTT (Panvera, Part number P2325, stored at −20° C.) and GR Screening buffer 10× (Panvera, Part number P2814, stored at −70° C. initially but once thawed stored at r.t.). Avoid repeated freeze/thaws for all reagents. The GR Screening buffer 10× comprises 100 mM potassium phosphate, 200 mM sodium molybdate, 1 mM EDTA and 20% DMSO.
0% control was 100% DMSO and 100% control was […] Dexamethasone. Background solution (8 μL; assay buffer 10×, Stabilizing Peptide, DTT and ice cold MQ water) was added to the background wells. GS Red solution (7 μL; assay buffer 10×, Stabilizing Peptide, DTT, GS Red and ice cold water) was added to all wells except background wells. GR solution (7 μL; assay buffer 10×, Stabilizing Peptide, DTT, GR and ice cold water) was added to all wells. The plate was sealed and incubated in a dark at r.t. for 2 h.

| IC50 | Compound |
| --- | --- |
| 3.2 nM | Cc1cccc([C@@H](Oc2ccc3c(cnn3-c3ccc(F)cc3)c2)[C@H](C)NC(=O)C(F)(F)F)c1 [Example 24, 2,2,2-trifluoro-N-[(1R,2S)-1-[1(4-fluorophenyl)indazol-5-yl]oxy-1-(3-methylphenyl)propan-2-yl]acetamide] |
| 11 nM | CCSCc1ccc([C@@H](Oc2ccc3c(cnn3-c3ccc(F)cc3)c2)[C@H](C)NC(=O)C(F)(F)F)cc1 [Example 25, N-[(1R,2S)-1-[4-(ethylsulfanylmethyl)phenyl]-1-[1-(4-fluorophenyl)indazol-5-yl]oxy-propan-2-yl]-2,2,2-trifluoro-acetamide] |
| 5.9 nM | CC[S+]([O-])Cc1ccc([C@@H](Oc2ccc3c(cnn3-c3ccc(F)cc3)c2)[C@H](C)NC(=O)C(F)(F)F)cc1 (stereo partly drawn) [Example 26, N-[(1R,2S)-1-[4-(ethylsulfinylmethyl)phenyl]-1-[1-(4-fluorophenyl)indazol-5-yl]oxy-propan-2-yl]-2,2,2-trifluoro-acetamide] |
| 3.2 nM | CCSCc1ccc([C@@H](Oc2ccc3c(cnn3-c3ccc(F)cc3)c2)[C@H](C)NC(=O)CO)cc1 [Example 27, N-[(1R,2S)-1-[4-(ethylsulfanylmethyl)phenyl]-1-[1-(4-fluorophenyl)indazol-5-yl]oxy-propan-2-yl]-2-hydroxy-acetamide] |
| 25 nM | C[C@H](NC(=O)CCCN)[C@H](Oc1ccc2c(cnn2-c2ccc(F)cc2)c1)c1ccccc1 [Example 28, 4-Amino-N-[(1R,2S)-1-[1-(4-fluorophenyl)indazol-5-yl]oxy-1-phenyl-propan-2-yl]butanamide] |
| 2.8 nM | COCC(=O)N[C@@H](C)[C@H](Oc1ccc2c(cnn2-c2ccc(F)cc2)c1)c1ccccc1 [Example 31, N-[(1R,2S)-1-[1-(4-fluorophenyl)indazol-5-yl]oxy-1-phenyl-propan-2-yl]-2-methoxy-acetamide] |
| 18 nM | C[C@H](NC(=O)Cc1ccccc1)[C@H](Oc1ccc2c(cnn2-c2ccc(F)cc2)c1)c1ccccc1 [Example 33, N-[(1R,2S)-1-[1-(4-fluorophenyl)indazol-5-yl]oxy-1-phenyl-propan-2-yl]-2-phenyl-acetamide] |
| 2.4 nM | CC(=O)OCC(=O)N[C@@H](C)[C@H](Oc1ccc2c(cnn2-c2ccc(F)cc2)c1)c1ccccc1 [Example 34, [(1R,2S)-1-[1-(4-fluorophenyl)indazol-5-yl]oxy-1-phenyl-propan-2-yl]carbamoylmethyl acetate] |
| 2.1 nM | COC(=O)C(=O)N[C@@H](C)[C@H](Oc1ccc2c(cnn2-c2ccc(F)cc2)c1)c1ccccc1 [Example 35, Methyl [(1R,2S)-1-[1-(4-fluorophenyl)indazol-5-yl]oxy-1-phenyl-propan-2-yl]carbamoylformate] |
| 10 nM | C[C@H](NC(=O)C(=O)O)[C@H](Oc1ccc2c(cnn2-c2ccc(F)cc2)c1)c1ccccc1 [Example 36, [(1R,2S)-1-[1-(4-fluorophenyl)indazol-5-yl]oxy-1-phenyl-propan-2-yl]carbamoylformic acid] |
| 2.4 nM | CC(C)C(=O)N[C@@H](C)[C@H](Oc1ccc2c(cnn2-c2ccc(F)cc2)c1)c1ccccc1 [Example 37, N-[(1R,2S)-1-[1-(4-fluorophenyl)indazol-5-yl]oxy-1-phenyl-propan-2-yl]-2-methyl-propanamide] |
| 2.4 nM | C[C@H](NC(=O)CCl)[C@H](Oc1ccc2c(cnn2-c2ccc(F)cc2)c1)c1ccccc1 [Example 38, 2-Chloro-N-[(1R,2S)-1-[1-(4-fluorophenyl)indazol-5-yl]oxy-1-phenyl-propan-2-yl]acetamide] |
| 6.4 nM | C[C@H](NC(=O)C(Cl)Cl)[C@H](Oc1ccc2c(cnn2-c2ccc(F)cc2)c1)c1ccccc1 [Example 39, 2,2-Dichloro-N-[(1R,2S)-1-[1-(4-fluorophenyl)indazol-5-yl]oxy-1-phenyl-propan-2-yl]acetamide] |
| 3.4 nM | C[C@H](NC(=O)C(Cl)(Cl)Cl)[C@H](Oc1ccc2c(cnn2-c2ccc(F)cc2)c1)c1ccccc1 [Example 40, 2,2,2-Trichloro-N-[(1R,2S)-1-[1-(4-fluorophenyl)indazol-5-yl]oxy-1-phenyl-propan-2-yl]acetamide] |
| 2.6 nM | CCCC(=O)N[C@@H](C)[C@H](Oc1ccc2c(cnn2-c2ccc(F)cc2)c1)c1ccccc1 [Example 41, N-[(1R,2S)-1-[1-(4-fluorophenyl)indazol-5-yl]oxy-1-phenyl-propan-2-yl]butanamide] |
| 2.2 nM | C[C@H](NC(=O)C1CCC1)[C@H](Oc1ccc2c(cnn2-c2ccc(F)cc2)c1)c1ccccc1 [Example 43, N-[(1R,2S)-1-[1-(4-fluorophenyl)indazol-5-yl]oxy-1-phenyl-propan-2-yl]cyclobutanecarboxamide] |
| 2.7 nM | C[C@H](NC(=O)C(F)F)[C@H](Oc1ccc2c(cnn2-c2ccc(F)cc2)c1)c1ccccc1 [Example 44, 2,2-Difluoro-N-[(1R,2S)-1-[1-(4-fluorophenyl)indazol-5-yl]oxy-1-phenyl-propan-2-yl]acetamide] |
| 3.4 nM | CCc1ccc([C@@H](Oc2ccc3c(cnn3-c3ccc(F)cc3)c2)[C@H](C)NC(=O)C(F)(F)F)cc1 [Example 46, N-[(1R,2S)-1-(4-ethylphenyl)-1-[1-(4-fluorophenyl)indazol-5-yl]oxy-propan-2-yl]-2,2,2-trifluoro-acetamide] |
| 2.5 nM | C[C@H](NC(=O)C(F)Cl)[C@H](Oc1ccc2c(cnn2-c2ccc(F)cc2)c1)c1ccccc1 (stereo partly drawn) [Example 47, 2-Chloro-2-fluoro-N-[(1R,2S)-1-[1-(4-fluorophenyl)indazol-5-yl]oxy-1-phenyl-propan-2-yl]acetamide] |
| 2.9 nM | C[C@H](O)C(=O)N[C@@H](C)[C@H](Oc1ccc2c(cnn2-c2ccc(F)cc2)c1)c1ccccc1 [Example 48, (2S)-N-[(1R,2S)-1-[1-(4-fluorophenyl)indazol-5-yl]oxy-1-phenyl-propan-2-yl]-2-hydroxy-propanamide] |
| 4.3 nM | CCc1ccc([C@@H](Oc2ccc3c(cnn3-c3ccc(F)cc3)c2)[C@H](C)NC(=O)C(C)C)cc1 [Example 51, N-[(1R,2S)-1-(4-ethylphenyl)-1-[1-(4-fluorophenyl)indazol-5-yl]oxy-propan-2-yl]-2-methyl-propanamide] |
| 2.9 nM | COCC(=O)N[C@@H](C)[C@H](Oc1ccc2c(cnn2-c2ccc(F)cc2)c1)c1cccc(OC)c1 [Example 54, N-[(1R,2S)-1-[1-(4-fluorophenyl)indazol-5-yl]oxy-1-(3-methoxyphenyl)propan-2-yl]-2-methoxy-acetamide] |
| 3.3 nM | COc1cccc([C@@H](Oc2ccc3c(cnn3-c3ccc(F)cc3)c2)[C@H](C)NC(=O)C(C)C)c1 [Example 55, N-[(1R,2S)-1-[1-(4-fluorophenyl)indazol-5-yl]oxy-1-(3-methoxyphenyl)propan-2-yl]-2-methyl-propanamide] |
| 4.4 nM | COc1cccc([C@@H](Oc2ccc3c(cnn3-c3ccc(F)cc3)c2)[C@H](C)NC(=O)C2CCCC2)c1 [Example 56, N-[(1R,2S)-1-[1-(4-fluorophenyl)indazol-5-yl]oxy-1-(3-methoxyphenyl)propan-2-yl]cyclopentanecarboxamide] |
| 4.1 nM | COc1cccc([C@@H](Oc2ccc3c(cnn3-c3ccc(F)cc3)c2)[C@H](C)NC(=O)[C@@H](C)O)c1 [Example 57, (2R)-N-[(1R,2S)-1-[1-(4-fluorophenyl)indazol-5-yl]oxy-1-(3-methoxyphenyl)propan-2-yl]-2-hydroxy-propanamide] |

| Compound | IC50 |
| --- | --- |
| C[C@H](NC(=O)CF)[C@H](Oc1ccc2c(cnn2-c2ccc(F)cc2)c1)c1ccccc1 [Example 45, 2-Fluoro-N-[(1R,2S)-1-[1-(4-fluorophenyl)indazol-5-yl]oxy-1-phenyl-propan-2-yl]acetamide] | 2.6 nM |
| CCc1ccc([C@@H](Oc2ccc3c(cnn3-c3ccc(F)cc3)c2)[C@H](C)NC(=O)CF)cc1 [Example 50, N-[(1R,2S)-1-(4-ethylphenyl)-1-[1-(4-fluorophenyl)indazol-5-yl]oxy-propan-2-yl]-2-fluoro-acetamide] | 2.9 nM |
| COc1cccc([C@@H](Oc2ccc3c(cnn3-c3ccc(F)cc3)c2)[C@H](C)NC(=O)CF)c1 [Example 53, 2-Fluoro-N-[(1R,2S)-1-[1-(4-fluorophenyl)indazol-5-yl]oxy-1-(3-methoxyphenyl)propan-2-yl]acetamide] | 3.5 nM |
